According to patent US20220281848A1, “PYRAZOLE-SUBSTITUTED PYRROLIDINONES AS HERBICIDES” (FMC Corporation, priority 2019, published 2022):

Key:
Format in all cases: in vivo
Conditions in all cases: 19 to 21 days
[1] = tested on: Italian ryegrass (Lolium multiflorum); assay: Test B preemergence, Italian ryegrass
From the text: (§1) Seeds of plant species selected from blackgrass (Alopecurus myosuroides), Italian ryegrass (Lolium multiflorum), wheat, winter (winter wheat, Triticum aestivum), corn (Zea mays), large (Lg) crabgrass (Digitaria sanguinalis), giant foxtail (Setaria faberi), johnsongrass (Sorghum halepense), ragweed (common ragweed, Ambrosia elatior), soybean (Glycine max), barnyardgrass (Echinochloa crus-galli), waterhemp (common waterhemp, Amaranthus rudis), palmer pigweed (Amaranthus palmeri), and surinam grass (Brachiaria decumbens), were planted into a silt loam soil and treated preemergence with test chemicals formulated in a non-phytotoxic solvent mixture which included a surfactant.
(§2) Treated plants and controls were maintained in a greenhouse for 19 to 21 days, after which time all species were compared to controls and visually evaluated. Plant response ratings, summarized in Table B, are based on a scale of 0 to 100 where 0 is no effect and 100 is complete control.

[2] = tested on: barnyardgrass (Echinochloa crus-galli); assay: Test B preemergence, barnyardgrass
From the text: as §1, §2

[3] = tested on: waterhemp (common waterhemp, Amaranthus rudis); assay: Test B preemergence, waterhemp
From the text: as §1, §2

[4] = tested on: ragweed (common ragweed, Ambrosia elatior); assay: Test C preemergence, ragweed
From the text: Seeds of plant species selected from corn (Zea mays), soybean (Glycine max), velvetleaf (Abutilon theophrasti), palmer pigweed (Amaranthus palmeri), waterhemp (common waterhemp, Amaranthus rudis), surinam grass (Brachiaria decumbens), large (Lg) crabgrass (Digitaria sanguinalis), fall panicum (Panicum dichotomiflorum), giant foxtail (Setaria faberi), ragweed (common ragweed, Ambrosia elatior), barnyardgrass (Echinochloa crus-galli), E. Black Nightshade (Solanum ptycanthum), and horseweed (Conyza canadensis), were planted into a silt loam soil and treated preemergence with test chemicals formulated in a non-phytotoxic solvent mixture which included a surfactant.
Treated plants and controls were maintained in a greenhouse for 19 to 21 days, after which time all species were compared to controls and visually evaluated. Plant response ratings, summarized in Table C, are based on a scale of 0 to 100 where 0 is no effect and 100 is complete control.

## CN1C[C@H](c2cc(C(F)(F)F)n(C)n2)[C@@H](C(=O)Nc2cccc(F)c2F)C1=O [Compound 13, (3S,4R)—N-(2,3-difluorophenyl)-1-methyl-4-[1-methyl-5-(trifluoromethyl)-1H-pyrazol-3-yl]-2-oxo-3-pyrrolidinecarboxamide]
[1]; 16 g ai/ha Preemergence
  Plant response rating (0 no effect, 100 complete control) Ryegrass, Italian: 0
[1]; 31 g ai/ha Preemergence
  Plant response rating (0 no effect, 100 complete control) Ryegrass, Italian: 25
[1]; 62 g ai/ha Preemergence
  Plant response rating (0 no effect, 100 complete control) Ryegrass, Italian: 65
[1]; 125 g ai/ha Preemergence
  Plant response rating (0 no effect, 100 complete control) Ryegrass, Italian: 92
[2]; 16 g ai/ha Preemergence
  Plant response rating (0 no effect, 100 complete control) Barnyardgrass: 85
[2]; 31 g ai/ha Preemergence
  Plant response rating (0 no effect, 100 complete control) Barnyardgrass: 95
[2]; 62 g ai/ha Preemergence
  Plant response rating (0 no effect, 100 complete control) Barnyardgrass: 95
[2]; 125 g ai/ha Preemergence
  Plant response rating (0 no effect, 100 complete control) Barnyardgrass: 97
[3]; 16 g ai/ha Preemergence
  Plant response rating (0 no effect, 100 complete control) Waterhemp: 0
[3]; 31 g ai/ha Preemergence
  Plant response rating (0 no effect, 100 complete control) Waterhemp: 0
[3]; 62 g ai/ha Preemergence
  Plant response rating (0 no effect, 100 complete control) Waterhemp: 0
[3]; 125 g ai/ha Preemergence
  Plant response rating (0 no effect, 100 complete control) Waterhemp: 15
[4]; 4 g ai/ha Preemergence
  Plant response rating (0 no effect, 100 complete control) Ragweed: 0
[4]; 8 g ai/ha Preemergence
  Plant response rating (0 no effect, 100 complete control) Ragweed: 0
[4]; 16 g ai/ha Preemergence
  Plant response rating (0 no effect, 100 complete control) Ragweed: 0
[4]; 31 g ai/ha Preemergence
  Plant response rating (0 no effect, 100 complete control) Ragweed: 0
[4]; 62 g ai/ha Preemergence
  Plant response rating (0 no effect, 100 complete control) Ragweed: 0
[4]; 125 g ai/ha Preemergence
  Plant response rating (0 no effect, 100 complete control) Ragweed: 0
